Results taken from publication PMC3378808 (Biochimica et Biophysica Acta, 2012).

T1: TMD of integrin αIIb (Homo sapiens, UniProt P08514)
T1 sequence (P08514 994-1019 limits assumed): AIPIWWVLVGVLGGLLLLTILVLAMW


Experiments:
[1] = molecular target: T1, TMD of integrin αIIb; assay: ToxR reporter assay of integrin αIIb TMD oligomerization; format: cell-based; settings: Figure 3c
[2] = system: NO production (NF-κB downstream signaling); assay: Nitric oxide; format: cell-based, human; settings: 100 μM, EBV positive B 721 cells, 48 h
[3] = molecular target: LMP-1 TMD-5 (Epstein-Barr virus, UniProt P03230); format: cell-based
[4] = molecular target: split luciferase (Photinus pyralis, UniProt P08659); assay: Split luciferase false-positive control; format: biochemical; settings: false positive evaluation
split luciferase, sequence (P08659 2-416 limits assumed): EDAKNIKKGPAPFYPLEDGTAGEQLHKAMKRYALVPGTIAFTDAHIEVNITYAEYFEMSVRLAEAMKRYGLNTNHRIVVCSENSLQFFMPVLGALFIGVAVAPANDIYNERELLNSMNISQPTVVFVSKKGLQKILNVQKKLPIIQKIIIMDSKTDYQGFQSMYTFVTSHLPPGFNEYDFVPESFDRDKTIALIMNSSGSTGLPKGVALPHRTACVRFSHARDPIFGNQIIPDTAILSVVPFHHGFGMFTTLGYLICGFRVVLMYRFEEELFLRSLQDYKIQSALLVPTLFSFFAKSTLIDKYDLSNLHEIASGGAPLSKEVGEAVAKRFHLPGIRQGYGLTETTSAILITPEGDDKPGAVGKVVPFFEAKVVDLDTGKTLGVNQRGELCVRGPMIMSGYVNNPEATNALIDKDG

[5] = system: B lymphoblastoid cell line 721; settings: 100 μM, B 721 cells, 48 h, WST-1
[6] = system: TMD of diacylglycerol kinase (DAGK); format: cell-based; settings: ToxR assay, Figure 3c
[7] = molecular target: 12 representative kinases (AKT1, CAMK1, DDR2, GSK-3α, MAPK1, MET, PAK1, PDGFRB, PIM1, PKC-γ, PLK4, SRC); assay: Kinase profiling; format: biochemical; settings: 50 μM compound
[8] = molecular target: TMD-5 trimer (Epstein-Barr virus, UniProt P03230); assay: Bis-Tris SDS-PAGE of TMD-5 after NMR titration; format: binding; settings: compound to TMD-5 ratio 4:1
[9] = molecular target: coumarin labeled TMD-5 peptide (LMP-1) (Epstein-Barr virus, UniProt P03230); assay: Coumarin fluorescence dequenching assay; format: binding
[10] = molecular target: TMD-5 peptide (Epstein-Barr virus, UniProt P03230); assay: NMR titration; format: binding; settings: 500 MHz, POPC/DHPC bicelles, 37 °C
[11] = molecular target: CAMK1 (Homo sapiens, UniProt Q14012); assay: Kinase profiling; format: biochemical; settings: 50 μM compound
CAMK1, sequence (Q14012 whole entry, species assumed): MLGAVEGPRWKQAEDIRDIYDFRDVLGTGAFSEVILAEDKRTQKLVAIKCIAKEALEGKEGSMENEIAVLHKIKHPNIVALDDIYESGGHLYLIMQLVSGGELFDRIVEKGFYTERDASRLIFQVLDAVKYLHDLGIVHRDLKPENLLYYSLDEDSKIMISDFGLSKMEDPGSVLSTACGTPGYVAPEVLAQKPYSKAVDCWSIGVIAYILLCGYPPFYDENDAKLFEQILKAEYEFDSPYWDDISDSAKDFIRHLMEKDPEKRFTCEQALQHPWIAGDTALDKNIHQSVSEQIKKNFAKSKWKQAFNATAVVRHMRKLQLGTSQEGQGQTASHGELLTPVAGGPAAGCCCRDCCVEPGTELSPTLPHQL

[12] = molecular target: PDGFRB (Homo sapiens, UniProt P09619); assay: Kinase profiling; format: biochemical; settings: 50 μM compound
PDGFRB, sequence (P09619 33-1106, species assumed): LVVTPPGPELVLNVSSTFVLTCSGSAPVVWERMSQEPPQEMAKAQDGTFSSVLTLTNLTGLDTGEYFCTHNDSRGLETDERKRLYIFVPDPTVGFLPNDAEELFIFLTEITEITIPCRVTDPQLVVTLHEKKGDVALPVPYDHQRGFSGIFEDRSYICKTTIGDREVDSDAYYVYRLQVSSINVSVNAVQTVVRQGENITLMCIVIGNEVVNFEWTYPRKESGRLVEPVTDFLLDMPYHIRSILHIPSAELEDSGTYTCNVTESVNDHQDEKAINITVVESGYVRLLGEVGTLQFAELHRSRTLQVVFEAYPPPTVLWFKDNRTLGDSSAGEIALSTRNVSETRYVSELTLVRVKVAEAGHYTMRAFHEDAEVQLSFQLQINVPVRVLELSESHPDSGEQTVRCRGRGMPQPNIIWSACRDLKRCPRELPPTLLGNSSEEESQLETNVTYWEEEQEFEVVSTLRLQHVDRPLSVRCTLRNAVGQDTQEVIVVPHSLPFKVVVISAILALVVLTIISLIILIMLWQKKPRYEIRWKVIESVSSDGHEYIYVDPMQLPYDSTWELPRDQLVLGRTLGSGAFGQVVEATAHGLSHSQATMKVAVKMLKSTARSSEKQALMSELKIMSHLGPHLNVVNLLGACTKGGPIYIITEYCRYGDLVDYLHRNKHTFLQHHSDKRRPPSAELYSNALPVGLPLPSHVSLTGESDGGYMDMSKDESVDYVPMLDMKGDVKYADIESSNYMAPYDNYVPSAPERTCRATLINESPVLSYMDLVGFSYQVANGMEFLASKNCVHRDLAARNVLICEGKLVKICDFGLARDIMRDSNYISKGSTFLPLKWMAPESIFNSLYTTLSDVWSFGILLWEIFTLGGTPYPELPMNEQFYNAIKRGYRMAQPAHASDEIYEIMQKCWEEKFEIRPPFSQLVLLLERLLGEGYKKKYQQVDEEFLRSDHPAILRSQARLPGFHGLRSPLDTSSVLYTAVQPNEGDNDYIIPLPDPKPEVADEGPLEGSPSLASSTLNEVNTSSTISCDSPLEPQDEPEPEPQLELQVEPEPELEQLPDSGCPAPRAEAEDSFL

[13] = system: full-length LMP-1-mediated NF-κB activity; assay: NF-κB luciferase reporter assay in EBV positive B 721 cells; format: cell-based; settings: Homo sapiens, B721, 48 h, read-out: IC50 of NF-κB activation
[14] = molecular target: the molecule itself; assay: Bis-Tris SDS-PAGE

Molecule | inhibition of integrin αIIb TMD oligomerization [1] | effect on NO over-production [2] | IC50 ([3]; read-out: IC50 to disrupt TMD-5 oligomerization in whole cells, ToxR assay, dose-dependent titration) | inhibition of luciferase control [4] | cytotoxicity / growth inhibition [5] | inhibition of DAGK TMD oligomerization [6] | kinase activity retained (ten out of twelve kinases) [7] | disruption of TMD-5 trimer to monomer on SDS-PAGE [8] | coumarin labeled TMD-5 fluorescence increase without detergent ([9]; in the absence of C14 betaine detergent) | chemical shift changes of TMD-5 on titration [10] | inhibition of CAMK1 [11] | inhibition of PDGFRB [12] | inhibition of TMD-5 oligomerization (ToxR assay), in words ([3]; Figure 3e/3f) | disruption of TMD-5 association (coumarin fluorescence dequenching), in words ([9]; 100 nM coumarin-labeled TMD-5, 150 μM C14 betaine, pH 7.4) | IC50 [13] | stoichiometry N [14]
N=C(N)c1ccc(C=Cc2ccc(C(=N)N)cc2O)cc1.O=S(=O)(O)CCO.O=S(=O)(O)CCO [Compound 1] | No apparent oligomerization inhibition | suppress NO over-production | 90 ± 10.5 µM | did not inhibit luciferase control | No apparent growth inhibition | did not inhibit DAGK TMD oligomerization | > 95% | disrupts the TMD-5 trimer | failed to cause coumarin labeled TMD-5 fluorescence increase | induced chemical shift changes at a number of sites including the deeply buried Asp 150 | approximately 20% | approximately 20% |  |  |  | 
C(=Cc1ccc(-c2nc(-c3ccccc3)nc(-c3ccccc3)n2)cc1)c1ccc(-c2nc(-c3ccccc3)nc(-c3ccccc3)n2)cc1 [Compound 6, 2,2'-(1,2-ethenediyldi-4,1-phenylene)bis(4,6-diphenyl-1,3,5-triazine), reference compound] |  | no significant inhibition activity |  |  |  |  |  |  |  |  |  |  | did not inhibit TMD-5 oligomerization | did not inhibit TMD-5 oligomerization | 180 ± 27.5 µM | 
GGPGWQLLAFFLAFFLDLILLIIALYLGPGG [TMD-5 peptide (GGPG-WQLLAFFLAFFLDLILLIIALYL-GPGG) derived from LMP-1] |  |  |  |  |  |  |  |  |  |  |  |  |  |  |  | 3
